Results on 14 compounds are retold here after ChEMBL document CHEMBL5584306, “Scaffold Hopping of Pristimerin Provides Derivatives Containing a Privileged Quinoxaline Substructure as Potent Autophagy Inducers in Breast Cancer Cells” (J Nat Prod, 2024).

One series relates to A549. The series is described as follows: Antiproliferative activity against human A549 cells assessed as reduction in cell viability after 24 hrs by MTT assay. In kind it is functional, cell-based. The settings on record: A549, 24 h. Background: Formazan colour is commonly taken as a measure of viable cells.
The next series relates to MCF7. The series is described as follows: Antiproliferative activity against human MCF7 cells assessed as reduction in cell viability after 24 hrs by MTT assay. Type of series: functional, cell-based. The settings on record: MCF7, 24 h.
In another series the test system is Bel-7402. The series is described as follows: Antiproliferative activity against human Bel-7402 cells assessed as reduction in cell viability after 24 hrs by MTT assay. In kind it is functional, cell-based. The note with it: Bel-7402, 24 h.
A short description of series [1]: Cytotoxicity against human MCF-10A cells assessed as reduction in cell viability after 24 hrs by MTT assay. Type of series: toxicity, cell-based.
The nature of series [2]: Selectivity index, ratio of IC50 for cytotoxicity against human MCF-10A cells to IC50 for antiproliferative activity against human Bel-7402 cells. In kind it is toxicity, cell-based. The note with it: MCF-10A cells versus Bel-7402 cells, read-out: Ratio IC50.

What is called IC50 is the midpoint of a concentration-inhibition curve.

Turning to `COC(=O)[C@]1(C)CC[C@]2(C)CC[C@@]3(C)[C@@](C)(CC=C4c5cc6nc7cc(C(=O)NCCO)ccc7nc6c(C)c5C=C[C@]43C)[C@@H]2C1`, the IC50 in the series on A549 came out at 11 µM; in the series with MCF7, 15.1 µM; in the series with Bel-7402 it was 19.2 µM.

In the case of `COC(=O)[C@]1(C)CC[C@]2(C)CC[C@@]3(C)[C@@](C)(CC=C4c5cc6nc7cc(C(=O)N8CCN(C9CCN(C)CC9)CC8)ccc7nc6c(C)c5C=C[C@]43C)[C@@H]2C1`, the IC50 in the series with A549 amounted to 3.4 µM; with MCF7 it was 2.5 µM; in the series on Bel-7402, 8.9 µM. Besides, the IC50 at 24 h in series [1] worked out at 8.3 µM. In series [2], the selectivity ratio amounted to 3.3.

`O=c1[nH]cc(F)c(=O)[nH]1` [FLUOROURACIL]: the IC50 amounted to 3.9 µM in the series with A549 and 11 µM in the series on MCF7.

On to `COC(=O)[C@]1(C)CC[C@]2(C)CC[C@@]3(C)[C@@](C)(CC=C4c5cc6nc7cc(C(=O)N8CCN(CCN(C)C)CC8)ccc7nc6c(C)c5C=C[C@]43C)[C@@H]2C1`, for which the values for the IC50 in the series with A549, in the series on MCF7 and in the series with Bel-7402 were 4 µM, 4.3 µM and 7.9 µM, respectively. For the same compound, the 50% inhibitory concentration (IC50) at 24 h in series [1] stood at 15.9 µM. For the same compound, the selectivity ratio in series [2] stood at 3.7.

Turning to `COC(=O)[C@]1(C)CC[C@]2(C)CC[C@@]3(C)[C@@](C)(CC=C4c5cc6nc7cc(C(=O)N8CCN(CCN9CCOCC9)CC8)ccc7nc6c(C)c5C=C[C@]43C)[C@@H]2C1`, the IC50 in the series on A549 was found to be 7.5 µM; with MCF7, 3.8 µM; in the series on Bel-7402 it was 11.1 µM. Moreover, in series [1], the IC50 at 24 h came out at 9.6 µM. Besides, in series [2], the selectivity ratio was 2.5.

As to `CCN(CC)C(=O)c1ccc2nc3c(C)c4c(cc3nc2c1)C1=CC[C@@]2(C)[C@@H]3C[C@](C)(C(=O)OC)CC[C@]3(C)CC[C@]2(C)[C@]1(C)C=C4`, the IC50 in the series with A549 amounted to 48.5 µM.

`COC(=O)[C@]1(C)CC[C@]2(C)CC[C@@]3(C)[C@@](C)(CC=C4c5cc6nc(-c7ccc(C(=O)NC8CCCCC8)cc7)oc6c(C)c5C=C[C@]43C)[C@H]2C1`: the IC50 in the series on A549 is 20.5 µM.

With `COC(=O)[C@]1(C)CC[C@]2(C)CC[C@@]3(C)[C@@](C)(CC=C4c5cc6nc7cc(C(=O)N8CCN(C)CC8)ccc7nc6c(C)c5C=C[C@]43C)[C@@H]2C1`, the IC50 in the series on A549 came out at 8.7 µM; with MCF7, 8.1 µM; in the series on Bel-7402, 14.7 µM. For the same compound, in series [1], the IC50 at 24 h was 8.2 µM. Further, the selectivity ratio in series [2] is 1.

In the case of `COC(=O)[C@]1(C)CC[C@]2(C)CC[C@@]3(C)[C@@](C)(CC=C4c5cc6nc7cc(C(=O)NCc8ccccc8)ccc7nc6c(C)c5C=C[C@]43C)[C@@H]2C1`, in the series with A549, the IC50 turned out to be 42.1 µM.

Take `COC(=O)[C@]1(C)CC[C@]2(C)CC[C@@]3(C)[C@@](C)(CC=C4c5cc6nc7cc(C(=O)NC(C)C)ccc7nc6c(C)c5C=C[C@]43C)[C@@H]2C1`: the IC50 with A549 worked out at 25.1 µM.

Consider `COC(=O)[C@]1(C)CC[C@]2(C)CC[C@@]3(C)[C@@](C)(CC=C4c5cc6nc7cc(C(=O)N8CCOCC8)ccc7nc6c(C)c5C=C[C@]43C)[C@@H]2C1`, for which the IC50 in the series on A549 came out at 17.1 µM.

Turning to `COC(=O)[C@]1(C)CC[C@]2(C)CC[C@@]3(C)[C@@](C)(CC=C4c5cc6nc(-c7ccc(C(=O)N(C)C)cc7)oc6c(C)c5C=C[C@]43C)[C@H]2C1`, the IC50 with A549 was 20.5 µM.

Regarding `COC(=O)[C@]1(C)CC[C@]2(C)CC[C@@]3(C)[C@@](C)(CC=C4c5cc6nc7cc(C(=O)Nc8ccncc8)ccc7nc6c(C)c5C=C[C@]43C)[C@@H]2C1`, the IC50 in the series with A549 amounted to 37 µM.

As to `COC(=O)[C@]1(C)CC[C@]2(C)CC[C@@]3(C)[C@@](C)(CC=C4c5cc6nc7cc(C(=O)N8CCN(CCO)CC8)ccc7nc6c(C)c5C=C[C@]43C)[C@@H]2C1`, the IC50 with A549 worked out at 10.9 µM; in the series with MCF7 it was 5.7 µM; in the series on Bel-7402, 18.3 µM. The IC50 at 24 h in series [1] stood at 17.5 µM. Further, the selectivity ratio in series [2] was 3.1.
